Patent publication US10376488B2, “Use of flavonoids in manufacturing compositions for wound healing” (ONENESS BIOTECH CO., Ltd, priority 2014, dated 2019)
Marks after values point to notes of the source that are not given here.

Test system: diabetic wound
Test: Diabetic wound healing test in STZ-induced hyperglycemic rats
Format: in vivo
Parameters: CT50: wound half-closure time: unit not given beside the values
Details: 0.5% ointment applied to wounds, mean±SEM, n = 6
Description: After rats' body weight reach 300 g, the induction of hyperglycemia was carried out with streptozotocin (STZ) (65 mg/kg, ip administration). […] Hyperglycemic animals with a body weight less than 300 g were excluded, and random grouping was performed. Animals were anesthetized with pentobarbital and then their backs were shaved and disinfected. Three pieces of animal skin (full thickness) were harvested from the back of the animals at points 4, 6 and 8 cm from the midpoint of the two scapula with an 1- cm-diameter drilling round knife.
Wounds of each animal were applied with testing agents. New skins were harvested for examination after the end of experiment.
Analyzing the areas of the three wounds on the back of each rat by image pro with the area on day zero as the original wound area. The original wound area is subtracted by the wound area at each time point and then divided by the original wound area to serve as the percentage of wound healing. The average value of the three percentages of wound healing of each rat is considered as the respective would healing extent of each rat. The number of rats was 6 for each group of each test. Data is expressed as mean±SEM. P value is calculated for the test results by t-test against control group, where P<0.05 indicates significant differences, denoted *.
A 0.5% cirsimaritin composition was prepared in an ointment form, and was applied to the rats as treated above. The comparison between the percentages of wound healing at 9, 11, 13, and 15 days after administration, and the untreated control group is shown below. There were significant differences for each group.

In the case of COc1cc2oc(-c3ccc(O)cc3)cc(=O)c2c(O)c1OC [cirsimaritin], the “CT50: wound half-closure time” value was 10.7 ± 0.4*, the “percentage of wound healing” value (9 days after administration) was 37.2 ± 3.9* % and the “percentage of wound healing” value (11 days after administration) was 51.5 ± 3.1* %. The “percentage of wound healing” value (13 days after administration) was 70.6 ± 3.5* % and the “percentage of wound healing” value (15 days after administration) was 83.3 ± 3.2* %.
